Laboratory results taken from patent US20240335470A1, “CAR T CELLS FOR TREATING CD19+, CD20+ OR CD22+ TUMORS OR B-CELL DERIVED AUTO-IMMUNE DISEASES” (OSPEDALE PEDIATRICO BAMBINO GESU', priority 2020, published 2024).

Key:
iC9.CAR.CD19 DAUDI cells = assay: In vitro activation of iC9 by AP1903, DAUDI (FACS, qPCR); assay type: cell-based, human; settings: 20 nM AP1903
Method: (§1) To induce the in vitro activation of iC9, cells were treated once with 20 nM of AP1903 (Medchemexpress, Cat. HY-16046). The percentage of CAR+ cells after the AP1903 treatment was evaluated by FACS at the indicated time points. […] Control cohort was infused with sterile PBS as vehicle solution. Tumor was monitored by weekly IVIS imaging analysis.
(§2) Flow cytometry analysis was performed to determine cell surface antigens expression; monoclonal antibodies for CD45, CD3, CD19, CD22, CD10, CD34 (all from Becton Dickinson, USA) were combined with different fluorescence according to needs. iC9.CAR.CD19 expression was detected using a mAb directed to hCD34 epitope (anti-CD34 QBend-10 PE from R&D System, USA), or CD19 CAR Detection Reagent (Biotin; Miltenyi, Germany). Flow-cytometry analysis was performed using a BD LSRFortessa X-20 cytometer (BD Biosciences, USA) and analyzed by FACSDiva software (BD Biosciences, USA). FACS-sorting on CAR-transduced tumor cell lines was performed on a FACSAria (BD Biosciences, USA).
(§3) The average of vector copy number (VCN) per cell was determined by real-time PCR, using a TaqMan probe designed on the retroviral construct using the Primer Express® software (Applied Biosystems) and reported in Table 2 (iC9 Probe and primers iC9).
(§4) For VCN, each sample was analyzed in triplicate and the average of threshold cycles was used to quantify DNA copies in relation to the mean values of negative control samples. Relative gene expression was calculated using the house-keeping gene ACT1N1 (Hs_02249516 ACT1N1, ThermoFisher Scientific) qPCR was performed employing QuantStudio 12K Flex Real-Time PCR System (ThermoFisher Scientific). For IG/TR PCR-MRD of the DPs, each MRD value was calculated from the corresponding standard curve, and the results were normalized for values of the housekeeping Albumin gene. […]

iC9.CAR.CD19 RAJI cells = assay: In vitro activation of iC9 by AP1903, RAJI (qPCR); assay type: cell-based, human; settings: 20 nM AP1903
Method: as §1, §3, §4

[1] = tested on: iC9.CAR.CD19LH-DAUDI cells; assay: NSG xenograft, iC9.CAR.CD19LH-DAUDI, iC9 activation by AP1903; assay type: in vivo, NSG mice
Method: Schematic representation of the experimental design, with iC9.CAR.CD19LH positive FF-Luciferase positive DAUDI cells infused at day-3. At Day 0, mice were evaluated for leukemia engraftment and treated with 100 μg/mouse of AP1903 from day 0 to day 28. (B) Bioluminescence images of each control untreated mouse and each AP1903 treated mouse. Mice were monitored for more than 30 days after AP1903 withdrawal (C) Bioluminescence values over time for each treated mouse in the two cohorts, un-treated (black lines) or AP1903 treated (dotted line) mice. (D) Kaplan-Meier survival curve analysis of leukaemia-bearing mice untreated (black line) or AP1903 treated (blue line). ****p-value=<0.00001. The only mouse (#20) showing a persisting positive signal at IVIS analysis after AP1903 administration was sacrificed at day 35 together with a negative control (#11) and a positive control (mouse not exposed to AP1903 administration, #6), to characterize the leukemia cells.
as §1

iC9-T cells = settings: patients with GVHD after haploidentical iC9-T cells infusion; cited from earlier work
[2] = tested on: DAUDI, RAJI and NALM-6 iC9.CAR+ cells; assay: In vitro activation of iC9 by AP1903, all cellular models (FACS, VCN); assay type: cell-based, human
Method: as §1, §2, §3, §4

[3] = tested on: iC9.CAR.CD19 NALM-6 cells; assay: In vitro activation of iC9 by AP1903, NALM-6 (qPCR); assay type: cell-based, human; settings: 20 nM AP1903
Method: as §1, §3, §4

CC[C@H](C(=O)N1CCCC[C@H]1C(=O)O[C@H](CCc1ccc(OC)c(OC)c1)c1cccc(OCC(=O)NCCNC(=O)COc2cccc([C@@H](CCc3ccc(OC)c(OC)c3)OC(=O)[C@@H]3CCCCN3C(=O)[C@@H](CC)c3cc(OC)c(OC)c(OC)c3)c2)c1)c1cc(OC)c(OC)c(OC)c1 [AP1903]
re-expansion of iC9.CAR+ leukemic cells on prolonged culture (iC9.CAR.CD19 DAUDI cells; FIG. 8E): not associated to re-expansion | MFI of CAR expression in AP1903 treated cells (iC9.CAR.CD19 DAUDI cells; threshold value, FIG. 10E): 142±22 | transgene (TG) positivity in remaining cells after AP1903 exposure (qPCR) (iC9.CAR.CD19 DAUDI cells; DAUDI cells): 22.8% | transgene (TG) positivity in remaining cells after AP1903 exposure (qPCR) (iC9.CAR.CD19 RAJI cells): 18.6% | complete CAR+ leukemia eradication, number of mice ([1]; AP1903 100 μg/mouse i.p. day 1 to day 28): 9 out of 10 | survival of treated mice ([1]; AP1903 100 μg/mouse i.p., even after drug suspension, to day 63): 100% | leukemia recurrence ([1]; until day 63 (endpoint of the experiment)): no mice showing leukemia recurrence | residual iC9-T cells after AP1903 administration (iC9-T cells): 1% | percentage of CAR+ leukemic cells ([2]; 20 nM AP1903, 6 hours): significant reduction in the percentage of CAR+ leukemic cells | CD19 antigen detection on cells remaining after AP1903 ([2]; 20 nM AP1903, FIG. 8E, 10B, 10D): completed re-established detection of CD19 antigen | average of VCN threshold in AP1903 treated B cells ([2]; across all the considered cellular models, 20 nM, FIG. 10F): 0.1±0.1 | transgene (TG) positivity in remaining cells after AP1903 exposure (qPCR) [3]: 0.6%
